Source: US12319655B2, “RAF kinase inhibitors and methods of use thereof” (Deciphera Pharmaceuticals, LLC, priority 2021, dated 2025)

Assays:
[1] = molecular target: B-Raf kinase (SEQ. ID NO: 2) (Homo sapiens (Human), UniProt P15056); test: Biochemical Assay for B-Raf (2); conditions: Table J, biochemical assay (2); read-out: BRAF (2)
Experimental: Biochemical Assay for B-Raf (2)
(§1) Activity of B-Raf kinase (SEQ. ID NO: 2) was determined spectroscopically using a coupled pyruvate kinase/lactate dehydrogenase assay that continuously monitors the ATP hydrolysis-dependent oxidation of NADH (e.g., Schindler et al., Science, 2000, 289, 1938-1942). Assays were conducted in 384-well plates (25 μL final volume) using 2 nM B-Raf (Sigma), 1.5 units pyruvate kinase, 2.1 units lactate dehydrogenase, 1 mM phosphoenol pyruvate, 0.7 mM NADH, 50 nM MEK (SignalChem), and 1 mM ATP in assay buffer (100 mM Tris, pH 7.5, 15 mM MgCl2, 0.5 mM DTT, 0.1% octyl-glucoside, 0.002% (w/v) BSA, and 0.002% Triton X-100). Inhibition of B-Raf was measured by adding serial diluted test compound (final assay concentration of 1% DMSO). A decrease in absorption at 340 nm was monitored hourly for 4 h at 30° C. on a multi-mode microplate reader (BioTek). The reaction rate was calculated using the 2 to 3 h time frame. The reaction rate at each concentration of compound was converted to percent inhibition using controls (i.e., reaction with no test compound and reaction with a known inhibitor) and IC50 values were calculated by fitting a four-parameter sigmoidal curve to the data using Prism (GraphPad software).

[2] = molecular target: C-Raf kinase (SEQ. ID NO: 3) (Homo sapiens (Human), UniProt P04049, Y340D/Y341D); test: Biochemical Assay for C-Raf (2); conditions: Table J, biochemical assay (2); read-out: CRAF (2)
Experimental: Biochemical Assay for C-Raf (2)
as §1, with “of C-Raf” for “of B-Raf”, “NO: 3)” for “NO: 2)”, “using 3.84” for “using 2”, “nM C-Raf (Eurofins),” for “nM B-Raf (Sigma),”

[3] = molecular target: B-Raf (V600E) (SEQ. ID NO: 4) kinase (Homo sapiens (Human), UniProt P15056, V600E); test: Biochemical Assay for B-Raf (V600E) (2); conditions: Table J, BRAF V600E, biochemical assay (2); read-out: BRAF VE (2)
Experimental: Biochemical Assay for B-Raf (V600E) (2)
Activity of B-Raf (V600E) (SEQ. ID NO: 4) kinase was determined spectroscopically using a coupled pyruvate kinase/lactate dehydrogenase assay that continuously monitors the ATP hydrolysis-dependent oxidation of NADH (e.g., Schindler et al., Science, 2000, 289, 1938-1942). Assays were conducted in 384-well plates (25 μL final volume) using 0.5 nM B-Raf (deCode), 1.5 units pyruvate kinase, 2.1 units lactate dehydrogenase, 1 mM phosphoenol pyruvate, 0.7 mM NADH, 100 nM MEK (SignalChem), and 1 mM ATP in assay buffer (100 mM Tris, pH 7.5, 15 mM MgCl2, 0.5 mM DTT, 0.1% octyl-glucoside, 0.002% (w/v) BSA, and 0.002% Triton X-100). Inhibition of B-Raf (V600E) was measured by adding serial diluted test compound (final assay concentration of 1% DMSO). A decrease in absorption at 340 nm was monitored hourly for 4 h at 30° C. on a multi-mode microplate reader (BioTek). The reaction rate was calculated using the 3 to 4 h time frame. The reaction rate at each concentration of compound was converted to percent inhibition using controls (i.e., reaction with no test compound and reaction with a known inhibitor) and IC50 values were calculated by fitting a four-parameter sigmoidal curve to the data using Prism (GraphPad software).

[4] = tested on: WM3928 cells; test: WM3928 Cell Proliferation Assay (2); type: cell-based
Experimental: WM3928 Cell Proliferation Assay (2)
WM3928 cells (#WM3928-01-0001) are obtained from Rockland Immunochemicals Inc (Gilbertsville, PA). Briefly, cells were grown in MCDB 153 medium (Sigma, #M7403, St. Louis, MO) supplemented with 20% Leibovitz's L-15 (ThermoFisher #11415-064, Waltham, MA), 2% heat inactivated fetal bovine serum (ThermoFisher, #A3840001, Waltham, MA), 5 μg/mL Insulin (Bovine Pancreas) (Sigma, #10516, St. Louis, MO), 1.68 mM Calcium Chloride (Sigma, #C-34006, St. Louis, MO) and 1% Penicillin/Streptomycin/L-Glutamine (ThermoFisher #10378016, Waltham, MA) at 37° C., 5% CO2, and 95% humidity. Cells are expanded until reaching 70-95% confluency at which point they are sub-cultured or harvested for assay use. Using the Beckman Coulter Echo 650, a serial dilution of test compound is dispensed into a 384-well black clear bottom plate in triplicate. Seven hundred fifty cells are added per well in 50 μL complete growth medium in the 384-well plate. Plates are incubated for 67-72 hours at 37° C., 5% CO2, and 95% humidity. At the end of the incubation, 10 μL of a 440 μM solution of resazurin (Sigma, #199303, St. Louis, MO) in PBS is added to each well of the plate and plates are incubated for an additional 3-6 hours at 37° C., 5% CO2, and 95% humidity. Plates are read on a Synergy2 or equivalent reader (Biotek, Winooski VT) using an excitation of 540 nm and an emission of 600 nm. Data is analyzed using Prism software (GraphPad, San Diego, CA) to calculate IC50 values.

B-Raf (V600E) (SEQ. ID NO: 4) kinase, sequence (P15056 416-766 V600E): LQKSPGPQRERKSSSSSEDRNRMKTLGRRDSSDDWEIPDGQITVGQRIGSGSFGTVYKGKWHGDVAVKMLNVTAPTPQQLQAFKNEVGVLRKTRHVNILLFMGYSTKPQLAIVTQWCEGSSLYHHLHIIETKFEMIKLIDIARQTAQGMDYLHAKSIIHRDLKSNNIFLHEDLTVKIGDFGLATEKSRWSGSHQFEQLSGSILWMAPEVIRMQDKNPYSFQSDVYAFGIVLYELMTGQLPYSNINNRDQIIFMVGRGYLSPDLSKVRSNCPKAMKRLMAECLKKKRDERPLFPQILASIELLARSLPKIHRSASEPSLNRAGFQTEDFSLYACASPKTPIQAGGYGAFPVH
C-Raf kinase (SEQ. ID NO: 3), sequence (P04049 307-648 Y340D/Y341D): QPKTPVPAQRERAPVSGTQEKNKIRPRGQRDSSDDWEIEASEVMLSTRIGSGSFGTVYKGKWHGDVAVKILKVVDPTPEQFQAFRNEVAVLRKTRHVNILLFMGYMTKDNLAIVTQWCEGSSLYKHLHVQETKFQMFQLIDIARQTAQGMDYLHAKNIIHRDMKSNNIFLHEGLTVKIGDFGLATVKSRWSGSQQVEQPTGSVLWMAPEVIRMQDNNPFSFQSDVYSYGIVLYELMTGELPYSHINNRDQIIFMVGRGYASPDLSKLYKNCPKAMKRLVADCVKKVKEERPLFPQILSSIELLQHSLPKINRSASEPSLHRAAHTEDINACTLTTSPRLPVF
B-Raf kinase (SEQ. ID NO: 2), sequence (P15056 416-766): as the sequence (P15056 416-766 V600E) above, with E185V counted along it

Structure (SMILES)	IC50 [1] [nM]	IC50 [2] [nM]	IC50 [3] [nM]	IC50 [4] [nM]
Cc1ccc(NC(=O)c2ccnc(C3(C#N)CC3)c2)cc1-c1ccnc(-c2ccnc(NC(=O)C3CC3)c2)c1 [Example 457]	≤ 100	≤ 100	≤ 100	≤ 100
Cc1ccc(NC(=O)c2ccnc(C3CC3)c2)cc1-c1ccnc(-c2ccnc(NC(=O)C3CC3)c2)c1 [Example 458]	≤ 100	≤ 100	≤ 100	≤ 100
Cc1ccc(NC(=O)c2ccnc(C(C)(F)F)c2)cc1-c1ccnc(-c2ccnc(NC(=O)C3CC3)c2)c1 [Example 459]	≤ 100	≤ 100	≤ 100	≤ 100
CNC(=O)c1cc(-c2cc(-c3cc(NC(=O)c4ccnc(C5CC5)c4)ccc3C)ccn2)ccn1 [Example 460]	≤ 100	≤ 100	≤ 100	≤ 100
Cc1ncc(NC(=O)c2ccnc(C3(C#N)CC3)c2)cc1-c1ccnc(-c2ccnc(NC(=O)C3CC3)c2)c1 [Example 461]	≤ 100	≤ 100	≤ 100	≤ 100
CNC(=O)c1cc(-c2cc(-c3cc(NC(=O)c4ccnc(C5CC5)c4)cnc3C)ccn2)ccn1 [Example 462]	100 to 500	≤ 100	100 to 500	500 to 1000
CNC(=O)c1cc(-c2cc(-c3cc(NC(=O)c4ccnc(C(C)(F)F)c4)cnc3C)ccn2)ccn1 [Example 463]	100 to 500	≤ 100	≤ 100	100 to 500
CNC(=O)c1cc(-c2cc(-c3cc(NC(=O)c4ccnc(C5(C#N)CC5)c4)cnc3C)ccn2)ccn1 [Example 464]	100 to 500	≤ 100	≤ 100	100 to 500
CNC(=O)c1cc(-c2cc(-c3cc(NC(=O)c4ccnc(C(C)C)c4)cnc3C)ccn2)ccn1 [Example 465]	100 to 500	≤ 100	≤ 100	100 to 500
Cc1ncc(NC(=O)c2ccnc(C(C)(F)F)c2)cc1-c1ccnc(-c2ccnc(NC(=O)C3CC3)c2)c1 [Example 466]	≤ 100	≤ 100	≤ 100	≤ 100
Cc1ccc(NC(=O)c2ccnc(C(C)C)c2)cc1-c1ccnc(-c2ccnc(NC(=O)C3CC3)c2)c1 [Example 467]	≤ 100	≤ 100	≤ 100	≤ 100
Cc1ncc(NC(=O)c2ccnc(C(C)C)c2)cc1-c1ccnc(-c2ccnc(NC(=O)C3CC3)c2)c1 [Example 468]	≤ 100	≤ 100	≤ 100	≤ 100
CNC(=O)c1cc(-c2cc(-c3cc(NC(=O)c4ccnc(C(C)(C)F)c4)ccc3C)c(F)cn2)ccn1 [Example 469]	≤ 100	≤ 100	≤ 100	100 to 500
CNC(=O)c1cc(-c2cc(-c3cc(NC(=O)c4ccnc(C(C)(C)F)c4)ccc3C)cc(C)n2)ccn1 [Example 470]	100 to 500	≤ 100	≤ 100	≤ 100
CNC(=O)c1cc(-c2cc(-c3cc(NC(=O)c4ccnc(C(C)(C)F)c4)ccc3C(F)(F)F)ccn2)ccn1 [Example 471]	1000 to 10000	1000 to 10000	1000 to 10000	1000 to 10000
CNC(=O)c1cc(-c2cc(-c3cc(NC(=O)c4ccnc(C(C)(C)F)c4)ccc3C)c(C)cn2)ccn1 [Example 472]	500 to 1000	500 to 1000	≤ 100	500 to 1000
CNC(=O)c1cc(-c2cc(-c3cc(NC(=O)c4ccnc(C(C)(C)F)c4)ccc3C)cnn2)ccn1 [Example 473]	100 to 500	≤ 100	≤ 100	≤ 100
CNC(=O)c1cc(-c2cc(-c3cc(NC(=O)c4ccnc(C(C)(C)F)c4)ccc3C)ncn2)ccn1 [Example 474]	≤ 100	≤ 100	≤ 100	≤ 100
CNC(=O)c1cc(-c2cc(-c3cc(F)cc(NC(=O)c4ccnc(C(C)(C)F)c4)c3F)ccn2)ccn1 [Example 475]	1000 to 10000	1000 to 10000	1000 to 10000	1000 to 10000
Cc1ccc(NC(=O)c2ccnc(C(C)(C)F)c2)cc1-c1ccnc(-c2ccnc(C(N)=O)c2)c1 [Example 476]	≤ 100	≤ 100	≤ 100	≤ 100
CNC(=O)c1cc(-c2cc(-c3cc(NC(=O)c4cnnc(C(F)(F)F)c4)ccc3C)ccn2)ccn1 [Example 477]	≤ 100	≤ 100	100 to 500	500 to 1000
CNC(=O)c1cc(-c2cc(-c3cc(NC(=O)c4ccnc(C(C)(C)F)c4)cc(F)c3F)ccn2)ccn1 [Example 478]	100 to 500	100 to 500	≤ 100	100 to 500
CNC(=O)c1cc(-c2cc(-c3cc(NC(=O)c4ccnc(C(C)(C)F)c4)ccc3F)ccn2)ccn1 [Example 479]	100 to 500	≤ 100	100 to 500	≤ 100
CNC(=O)c1cc(-c2cc(-c3cc(NC(=O)c4ccnc(C(C)(C)F)c4)cc(F)c3C)ccn2)ccn1 [Example 480]	100 to 500	100 to 500	≤ 100	≤ 100
CNC(=O)c1cc(-c2cc(-c3cc(NC(=O)c4ccnc(C(C)(C)F)c4)ccn3)ccn2)ccn1 [Example 481]	1000 to 10000	500 to 1000	1000 to 10000	1000 to 10000
CNC(=O)c1cc(-c2cc(-c3cc(NC(=O)c4ccnc(C(C)(C)F)c4)c(F)cc3F)ccn2)ccn1 [Example 482]	100 to 500	≤ 100	≤ 100	100 to 500
